Tests used:
[1] = Inhibition of CH1D incubated for 30 mins prior to substrate addition study done at apparent ATP Km for enzyme
[2] = molecular target: T1, Serine/threonine-protein kinase Nek2 (Homo sapiens, UniProt P51955)
T1 sequence (P51955 whole entry): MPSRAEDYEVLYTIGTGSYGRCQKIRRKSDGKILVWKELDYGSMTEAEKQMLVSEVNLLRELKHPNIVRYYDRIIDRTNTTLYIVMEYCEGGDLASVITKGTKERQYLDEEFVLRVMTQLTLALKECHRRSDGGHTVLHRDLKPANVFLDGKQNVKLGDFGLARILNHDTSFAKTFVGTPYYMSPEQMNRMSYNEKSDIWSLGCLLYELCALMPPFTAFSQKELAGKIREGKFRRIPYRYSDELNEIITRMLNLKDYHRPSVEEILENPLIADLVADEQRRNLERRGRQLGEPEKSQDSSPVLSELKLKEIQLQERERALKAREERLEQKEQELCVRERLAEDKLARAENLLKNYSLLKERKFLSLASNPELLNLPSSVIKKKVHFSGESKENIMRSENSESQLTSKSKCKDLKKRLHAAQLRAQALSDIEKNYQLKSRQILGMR
Description: Inhibition of Nek2-mediated C-Nap1 phosphorylation in human U2OS cells after 3 hrs by immunofluorescence microscopy

[3] = molecular target: Ribosomal protein S6 kinase alpha-5 (Homo sapiens) (UniProt O75582); test: Inhibition of MSK1 at 1 uM incubated for 30 mins prior to substrate addition study done at apparent ATP Km for enzyme
[4] = molecular target: RAC-beta serine/threonine-protein kinase (Homo sapiens) (UniProt P31751); test: Inhibition of AKT2 at 1 uM incubated for 30 mins prior to substrate addition study done at apparent ATP Km for enzyme
[5] = molecular target: Tyrosine-protein kinase Fyn (Homo sapiens, UniProt P06241); test: Inhibition of FYN at 1 uM incubated for 30 mins prior to substrate addition study done at apparent ATP Km for enzyme
[6] = molecular target: Tyrosine-protein kinase Lck (Homo sapiens, UniProt P06239); test: Inhibition of LCK at 1 uM incubated for 30 mins prior to substrate addition study done at apparent ATP Km for enzyme
[7] = molecular target: MAP kinase-activated protein kinase 2 (Homo sapiens) (UniProt P49137); test: Inhibition of MAPKAPK2 at 1 uM incubated for 30 mins prior to substrate addition study done at apparent ATP Km for enzyme
[8] = molecular target: T2, Proto-oncogene tyrosine-protein kinase Src (Homo sapiens, UniProt P12931); test: Inhibition of SRC incubated for 30 mins prior to substrate addition study done at apparent ATP Km for enzyme
[9] = molecular target: T3, Tyrosine-protein kinase Lyn (Homo sapiens, UniProt P07948); test: Inhibition of LYN at 1 uM incubated for 30 mins prior to substrate addition study done at apparent ATP Km for enzyme
[10] = molecular target: T3, Tyrosine-protein kinase Lyn; test: Inhibition of LYN incubated for 30 mins prior to substrate addition study done at apparent ATP Km for enzyme
[11] = molecular target: Cyclin-dependent kinase 2 (Homo sapiens, UniProt P24941); test: Inhibition of CDK2 by caliper method
[12] = molecular target: Serine/threonine-protein kinase D2 (Homo sapiens) (UniProt Q9BZL6); test: Inhibition of PKD2 at 1 uM incubated for 30 mins prior to substrate addition study done at apparent ATP Km for enzyme
[13] = test system: MCF7; test: Growth inhibition of human MCF7 cells after 92 hrs by CellTiter-Blue assay; type: functional; details: MCF7, 92 h
[14] = molecular target: Serine/threonine-protein kinase Chk2 (Homo sapiens, UniProt O96017); test: Inhibition of CHK2 incubated for 30 mins prior to substrate addition study done at apparent ATP Km for enzyme
[15] = molecular target: Serine/threonine-protein kinase PLK1 (Homo sapiens, UniProt P53350); test: Inhibition of Plk1 using 5-FAMRRRAGALMDASFEEQ- CONH2 as substrate after 75 mins by caliper method
[16] = molecular target: T2, Proto-oncogene tyrosine-protein kinase Src; details: 1 uM
[17] = molecular target: Insulin receptor (Homo sapiens) (UniProt P06213); test: Inhibition of INSR at 1 uM incubated for 30 mins prior to substrate addition study done at apparent ATP Km for enzyme
[18] = molecular target: Glycogen synthase kinase-3 beta (Homo sapiens, UniProt P49841); test: Inhibition of GSK3beta at 1 uM incubated for 30 mins prior to substrate addition study done at apparent ATP Km for enzyme
[19] = test system: U2OS; test: Growth inhibition of human U2OS cells after 92 hrs by CellTiter-Blue assay; type: functional
[20] = molecular target: MAP kinase-activated protein kinase 5 (Homo sapiens) (UniProt Q8IW41); test: Inhibition of PRAK at 1 uM incubated for 30 mins prior to substrate addition study done at apparent ATP Km for enzyme
[21] = molecular target: Serine/threonine-protein kinase D2 (Homo sapiens, UniProt Q9BZL6); test: Inhibition of PKD2 incubated for 30 mins prior to substrate addition study done at apparent ATP Km for enzyme
[22] = test system: HeLa; test: Growth inhibition of human HeLa cells after 92 hrs by CellTiter-Blue assay; type: functional
[23] = molecular target: T4, Dual specificity protein kinase TTK (Homo sapiens, UniProt P33981); test: Inhibition of MPS1 by caliper method
T4 sequence (P33981 whole entry): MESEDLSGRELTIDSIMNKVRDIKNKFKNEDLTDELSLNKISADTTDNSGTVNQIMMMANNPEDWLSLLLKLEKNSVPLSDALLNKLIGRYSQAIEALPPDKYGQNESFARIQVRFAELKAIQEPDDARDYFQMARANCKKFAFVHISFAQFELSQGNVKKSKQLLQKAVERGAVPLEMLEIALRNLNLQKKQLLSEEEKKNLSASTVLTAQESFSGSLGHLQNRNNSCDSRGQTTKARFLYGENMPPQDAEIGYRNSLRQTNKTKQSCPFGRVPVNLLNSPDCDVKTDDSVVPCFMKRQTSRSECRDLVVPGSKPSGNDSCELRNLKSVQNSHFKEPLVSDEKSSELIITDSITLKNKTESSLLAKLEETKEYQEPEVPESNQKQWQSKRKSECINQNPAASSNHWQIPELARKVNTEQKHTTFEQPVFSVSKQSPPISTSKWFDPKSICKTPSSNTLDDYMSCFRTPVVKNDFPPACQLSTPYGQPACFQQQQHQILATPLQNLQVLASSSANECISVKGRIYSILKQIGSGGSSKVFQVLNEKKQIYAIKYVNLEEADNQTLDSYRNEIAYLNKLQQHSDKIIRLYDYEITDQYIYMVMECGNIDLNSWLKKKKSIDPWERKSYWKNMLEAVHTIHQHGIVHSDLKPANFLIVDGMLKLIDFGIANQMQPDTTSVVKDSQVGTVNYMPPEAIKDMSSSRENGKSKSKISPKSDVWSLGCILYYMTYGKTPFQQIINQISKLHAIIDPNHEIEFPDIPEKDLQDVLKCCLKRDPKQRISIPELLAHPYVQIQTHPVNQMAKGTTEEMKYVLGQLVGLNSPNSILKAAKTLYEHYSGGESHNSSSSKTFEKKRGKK

T2 sequence (P12931 2-536 limits assumed): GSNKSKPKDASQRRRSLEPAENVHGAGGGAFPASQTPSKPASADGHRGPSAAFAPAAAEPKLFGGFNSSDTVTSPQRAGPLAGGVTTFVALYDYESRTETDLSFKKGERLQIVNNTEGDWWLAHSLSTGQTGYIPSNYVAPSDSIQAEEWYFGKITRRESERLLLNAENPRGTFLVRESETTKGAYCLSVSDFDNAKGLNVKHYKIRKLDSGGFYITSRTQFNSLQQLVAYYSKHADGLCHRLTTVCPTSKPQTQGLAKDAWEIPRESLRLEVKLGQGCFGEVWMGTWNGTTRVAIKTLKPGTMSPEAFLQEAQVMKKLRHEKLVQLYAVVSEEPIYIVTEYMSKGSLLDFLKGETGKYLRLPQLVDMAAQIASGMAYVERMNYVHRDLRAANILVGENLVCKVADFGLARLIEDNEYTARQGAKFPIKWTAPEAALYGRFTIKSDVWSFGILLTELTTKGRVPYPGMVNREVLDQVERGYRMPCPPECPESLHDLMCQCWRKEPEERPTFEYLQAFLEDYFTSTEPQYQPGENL
Chain of Glycogen synthase kinase-3 beta (P49841 whole entry, looked up): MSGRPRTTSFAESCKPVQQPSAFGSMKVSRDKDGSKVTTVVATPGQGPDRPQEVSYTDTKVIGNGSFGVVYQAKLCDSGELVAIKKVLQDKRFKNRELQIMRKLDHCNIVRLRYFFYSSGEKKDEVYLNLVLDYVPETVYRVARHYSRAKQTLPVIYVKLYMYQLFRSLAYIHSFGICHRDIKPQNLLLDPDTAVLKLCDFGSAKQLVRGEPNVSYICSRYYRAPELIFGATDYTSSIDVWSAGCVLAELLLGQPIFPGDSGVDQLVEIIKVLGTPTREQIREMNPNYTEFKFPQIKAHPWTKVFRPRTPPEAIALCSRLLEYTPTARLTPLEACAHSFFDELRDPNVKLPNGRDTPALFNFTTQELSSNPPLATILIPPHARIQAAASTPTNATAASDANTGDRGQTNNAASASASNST
Chain of RAC-beta serine/threonine-protein kinase (Homo sapiens) (P31751 whole entry): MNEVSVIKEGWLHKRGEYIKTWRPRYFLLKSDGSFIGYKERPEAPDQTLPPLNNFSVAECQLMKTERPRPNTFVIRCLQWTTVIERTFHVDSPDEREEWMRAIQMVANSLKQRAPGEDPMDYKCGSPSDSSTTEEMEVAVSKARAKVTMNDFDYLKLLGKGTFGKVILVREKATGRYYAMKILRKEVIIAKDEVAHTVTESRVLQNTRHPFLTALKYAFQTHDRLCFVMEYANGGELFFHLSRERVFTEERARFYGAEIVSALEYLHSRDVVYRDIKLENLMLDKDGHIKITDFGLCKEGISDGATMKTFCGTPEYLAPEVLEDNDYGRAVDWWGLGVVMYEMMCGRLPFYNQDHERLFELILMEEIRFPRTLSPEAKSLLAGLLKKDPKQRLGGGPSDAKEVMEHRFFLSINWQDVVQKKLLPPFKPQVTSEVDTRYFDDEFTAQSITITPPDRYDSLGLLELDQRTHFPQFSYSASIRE
Chain of MAP kinase-activated protein kinase 2 (Homo sapiens) (P49137 whole entry, looked up): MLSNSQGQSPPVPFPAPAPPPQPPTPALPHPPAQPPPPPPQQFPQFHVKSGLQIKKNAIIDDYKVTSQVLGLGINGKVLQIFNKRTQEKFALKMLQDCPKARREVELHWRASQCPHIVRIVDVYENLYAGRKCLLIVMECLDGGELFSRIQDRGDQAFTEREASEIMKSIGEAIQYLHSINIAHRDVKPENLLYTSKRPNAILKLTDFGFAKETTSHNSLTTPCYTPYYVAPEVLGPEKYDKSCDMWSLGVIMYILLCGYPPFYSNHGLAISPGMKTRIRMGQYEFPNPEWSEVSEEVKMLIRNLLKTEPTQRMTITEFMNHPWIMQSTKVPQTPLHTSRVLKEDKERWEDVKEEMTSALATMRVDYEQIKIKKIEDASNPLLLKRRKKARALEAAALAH
Chain of Tyrosine-protein kinase Fyn (P06241 2-537 limits assumed): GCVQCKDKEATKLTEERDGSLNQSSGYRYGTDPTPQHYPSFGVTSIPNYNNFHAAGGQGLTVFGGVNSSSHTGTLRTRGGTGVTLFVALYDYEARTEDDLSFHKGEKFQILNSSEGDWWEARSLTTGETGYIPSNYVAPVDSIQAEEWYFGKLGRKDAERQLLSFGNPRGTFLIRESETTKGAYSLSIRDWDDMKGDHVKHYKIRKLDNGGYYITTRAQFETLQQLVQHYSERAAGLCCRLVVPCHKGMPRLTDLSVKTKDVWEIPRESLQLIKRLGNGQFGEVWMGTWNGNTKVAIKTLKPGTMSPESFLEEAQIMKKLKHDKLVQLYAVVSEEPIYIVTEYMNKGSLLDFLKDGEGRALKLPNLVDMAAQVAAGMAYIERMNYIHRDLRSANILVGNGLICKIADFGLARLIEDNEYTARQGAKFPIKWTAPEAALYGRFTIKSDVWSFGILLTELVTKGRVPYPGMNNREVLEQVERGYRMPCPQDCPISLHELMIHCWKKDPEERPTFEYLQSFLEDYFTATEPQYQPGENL
Chain of Serine/threonine-protein kinase D2 (Homo sapiens) (Q9BZL6 whole entry): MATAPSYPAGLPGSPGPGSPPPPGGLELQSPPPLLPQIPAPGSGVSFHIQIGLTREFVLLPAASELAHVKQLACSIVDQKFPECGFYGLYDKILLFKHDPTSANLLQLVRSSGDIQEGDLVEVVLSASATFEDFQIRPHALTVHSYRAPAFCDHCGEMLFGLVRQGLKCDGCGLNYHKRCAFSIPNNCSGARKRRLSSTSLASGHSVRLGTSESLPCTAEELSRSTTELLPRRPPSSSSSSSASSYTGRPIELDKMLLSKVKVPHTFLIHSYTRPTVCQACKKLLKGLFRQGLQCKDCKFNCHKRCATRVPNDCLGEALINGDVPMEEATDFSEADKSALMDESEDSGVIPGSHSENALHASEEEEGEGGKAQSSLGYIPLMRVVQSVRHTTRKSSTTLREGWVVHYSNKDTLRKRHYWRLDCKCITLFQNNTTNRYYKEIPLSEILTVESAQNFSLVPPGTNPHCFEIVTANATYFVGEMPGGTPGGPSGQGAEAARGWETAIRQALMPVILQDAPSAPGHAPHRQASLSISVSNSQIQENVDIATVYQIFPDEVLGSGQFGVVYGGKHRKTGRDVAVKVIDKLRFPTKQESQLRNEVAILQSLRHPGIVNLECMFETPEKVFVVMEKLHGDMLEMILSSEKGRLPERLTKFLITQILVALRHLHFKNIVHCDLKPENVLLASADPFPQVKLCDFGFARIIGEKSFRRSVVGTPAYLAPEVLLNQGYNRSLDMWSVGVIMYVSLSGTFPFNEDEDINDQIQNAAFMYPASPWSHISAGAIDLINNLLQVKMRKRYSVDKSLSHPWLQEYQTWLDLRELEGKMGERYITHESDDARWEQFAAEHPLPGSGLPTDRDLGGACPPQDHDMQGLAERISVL
Chain of Serine/threonine-protein kinase D2 (Q9BZL6 whole entry): as above
Chain of Serine/threonine-protein kinase PLK1 (P53350 whole entry): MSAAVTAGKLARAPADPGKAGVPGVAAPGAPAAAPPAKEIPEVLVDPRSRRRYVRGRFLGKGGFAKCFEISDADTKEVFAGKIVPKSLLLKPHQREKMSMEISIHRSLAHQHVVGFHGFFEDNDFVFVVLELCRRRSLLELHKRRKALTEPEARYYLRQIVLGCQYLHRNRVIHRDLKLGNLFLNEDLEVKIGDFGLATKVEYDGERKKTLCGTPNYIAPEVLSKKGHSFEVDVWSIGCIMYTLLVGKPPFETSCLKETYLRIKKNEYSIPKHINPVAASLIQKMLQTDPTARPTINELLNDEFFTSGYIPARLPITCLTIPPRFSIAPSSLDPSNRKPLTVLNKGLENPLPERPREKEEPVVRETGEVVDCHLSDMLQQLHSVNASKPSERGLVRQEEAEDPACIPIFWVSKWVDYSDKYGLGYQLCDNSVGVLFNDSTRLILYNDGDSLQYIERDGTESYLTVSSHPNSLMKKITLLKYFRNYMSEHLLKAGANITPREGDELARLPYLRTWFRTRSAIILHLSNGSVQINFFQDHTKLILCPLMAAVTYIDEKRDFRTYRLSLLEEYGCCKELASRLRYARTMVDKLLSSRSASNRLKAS
Chain of Tyrosine-protein kinase Lck (P06239 2-509 limits assumed): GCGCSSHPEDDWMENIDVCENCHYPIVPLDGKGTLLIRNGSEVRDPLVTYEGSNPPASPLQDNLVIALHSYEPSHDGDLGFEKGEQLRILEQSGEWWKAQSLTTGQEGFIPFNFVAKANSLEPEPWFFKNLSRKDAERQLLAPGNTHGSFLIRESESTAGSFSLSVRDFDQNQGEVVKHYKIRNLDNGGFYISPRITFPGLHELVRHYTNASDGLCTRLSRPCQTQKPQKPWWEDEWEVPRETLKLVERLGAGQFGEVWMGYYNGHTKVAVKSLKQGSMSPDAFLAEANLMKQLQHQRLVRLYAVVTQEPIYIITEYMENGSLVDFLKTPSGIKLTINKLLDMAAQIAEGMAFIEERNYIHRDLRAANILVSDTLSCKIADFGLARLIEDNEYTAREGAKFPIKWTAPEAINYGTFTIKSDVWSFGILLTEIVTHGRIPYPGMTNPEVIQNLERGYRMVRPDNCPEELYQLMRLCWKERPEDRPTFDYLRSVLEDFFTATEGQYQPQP
Chain of MAP kinase-activated protein kinase 5 (Homo sapiens) (Q8IW41 whole entry): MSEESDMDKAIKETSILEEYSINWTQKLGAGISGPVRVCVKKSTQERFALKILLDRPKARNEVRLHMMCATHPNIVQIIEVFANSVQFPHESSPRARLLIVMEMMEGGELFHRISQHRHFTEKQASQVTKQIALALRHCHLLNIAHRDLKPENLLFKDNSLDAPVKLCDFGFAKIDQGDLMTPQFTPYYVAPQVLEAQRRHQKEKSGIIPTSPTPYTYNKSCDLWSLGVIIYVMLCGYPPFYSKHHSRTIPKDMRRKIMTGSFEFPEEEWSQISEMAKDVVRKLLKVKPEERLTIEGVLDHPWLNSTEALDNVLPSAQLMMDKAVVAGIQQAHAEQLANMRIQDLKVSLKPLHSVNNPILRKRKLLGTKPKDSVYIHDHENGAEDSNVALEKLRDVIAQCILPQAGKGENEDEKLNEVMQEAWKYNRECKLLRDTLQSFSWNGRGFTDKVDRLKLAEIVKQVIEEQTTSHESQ

## C[C@H](/C=C\C(F)(F)F)Oc1cc(-c2cc(-c3cc(CN(C)C)cs3)cnc2N)ccc1C(N)=O
[1]
  IC50: 430 nM
[2]
  IC50: 800 nM
[3]
  inhibition: 25%
[4]
  inhibition: 0%
[5]
  inhibition: 57%
[6]
  inhibition: 89%
[7]
  inhibition: 6%
[8]
  IC50: 840 nM
[9]
  inhibition: 43%
[10]
  IC50: 1360 nM
[11]
  IC50: 4.57 µM
[12]
  inhibition: 77%
[13]
  GI50: 2170 nM
[14]
  IC50: 2000 nM
[15]
  IC50: 5.82 µM
[16]
  inhibition: 51%
[17]
  inhibition: 0%
[18]
  inhibition: 93%
[19]
  GI50: 1820 nM
[20]
  inhibition: 7%
[21]
  IC50: 330 nM
[22]
  GI50: 590 nM
[23]
  IC50: 8.47 µM

Reference: ChEMBL document CHEMBL2040736, “Design of potent and selective hybrid inhibitors of the mitotic kinase Nek2: structure-activity relationship, structural biology, and cellular activity” (J Med Chem, 2012)
